# Publication PMC9689838, “Screening and Identification of Novel Soluble Epoxide Hydrolase Inhibitors from Corn Gluten Peptides” (Foods, 2022)
# Like-named read-outs stand apart in the source and are kept apart here. Where a SMILES comes first, the peptide text is derived from it.
# Legend:
# [1] = target: T1, Human soluble epoxide hydrolase (sEH) (Homo sapiens, UniProt P34913); test: sEH inhibitory activity assay with fluorescent substrate PHOME; format: biochemical; details: 10 µM PHOME, 40 min, mean ± SD n = 3; for inhibition at 100 µM: peptide 100 µM final, 62.5 ng/mL sEH, 37 °C; for IC50: synthesized peptides 20-100 µM
# T1 construct: purchased Cayman Chemical (Ann Arbor, MI, USA)
# T1 sequence (P34913 1-555): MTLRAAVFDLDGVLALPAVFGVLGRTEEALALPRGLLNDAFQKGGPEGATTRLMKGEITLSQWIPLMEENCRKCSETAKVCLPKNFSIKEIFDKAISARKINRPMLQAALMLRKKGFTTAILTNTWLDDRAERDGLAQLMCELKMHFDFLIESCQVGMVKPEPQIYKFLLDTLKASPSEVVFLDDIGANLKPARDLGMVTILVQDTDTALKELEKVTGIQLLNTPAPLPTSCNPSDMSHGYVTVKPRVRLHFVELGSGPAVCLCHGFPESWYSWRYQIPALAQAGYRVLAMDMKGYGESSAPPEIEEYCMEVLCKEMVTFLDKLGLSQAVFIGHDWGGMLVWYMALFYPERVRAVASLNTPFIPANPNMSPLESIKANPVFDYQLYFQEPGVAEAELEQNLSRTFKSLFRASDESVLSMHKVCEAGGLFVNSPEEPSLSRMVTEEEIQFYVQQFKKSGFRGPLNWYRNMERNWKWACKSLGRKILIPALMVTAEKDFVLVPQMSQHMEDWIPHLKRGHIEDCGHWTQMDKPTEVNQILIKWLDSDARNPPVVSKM
# Description: The effects of the concentrations of the enzyme, substrate, and the hydrolysis time of sEH on PHOME were determined according to the methods reported previously. […] After incubating at 37 °C for 5 to 50 min, the fluorescence intensity was measured at an emission wavelength of 465 nm and an excitation wavelength of 330 nm. Bis-Tris-HCl instead of PHOME was used as the blank control. The reaction rate of the system was calculated as follows:(1) The reaction rate (RFU/min)=St - Ct/t where St (RFU) and Ct (RFU) represent the fluorescence intensity of the sample and blank group at t min, respectively. The t (min) represents the reaction time.
# The sEH inhibitory activities of peptides were determined as above described. Briefly, 130 µL of 62.5 ng/mL human sEH solution (final concentrations, dissolved in 25 mM bis-Tris-HCl containing 0.1% BSA, pH 7.0) and 20 µL of peptides (final concentrations: synthesized peptides, 20, 40, 60, 80, and 100 µM; corn gluten peptides, 1, 2, 3, 4, and 5 mg/mL, respectively) were added to 96-well plate followed by adding 50 µL of 10 µM PHOME solution (final concentration, dissolved in 25 mM bis-Tris-HCl containing 0.1% BSA, pH 7.0). After incubating at 37 °C for 5 to 40 min, the fluorescence intensity of the mixture at an emission wavelength of 465 nm and an excitation wavelength of 330 nm was determined. […] The sEH inhibitory activity was calculated as follows:(2) sEH inhibitory activity (%)=C40 - S40/C40 - C0×100% where C40 (RFU) and C0 (RFU) represented the fluorescence intensity of the blank control group at 40 and 0 min, respectively. S40 (RFU) represented the fluorescence intensity of the sample group at 40 min.
# sEH = details: read-out: IC50, sEH inhibitory activity, cited from earlier work
# [2] = isolated from Capsicum chinense
structure (smiles),measurement,setting,value
N[C@@H](Cc1c[nH]c2ccccc12)C(=O)N[C@@H](CCC(=O)O)C(=O)N[C@@H](Cc1ccc(O)cc1)C(=O)O [WEY] (H-Trp-Glu-Tyr-OH),inhibition at 100 µM,[1],70 ± 6.25%
same,IC50,[1],55.4 ± 1.55 µM
COc1cc(CNC(=O)CCCC/C=C/C(C)C)ccc1O [capsaicin],IC50,sEH; [2],5.6 ± 1.2 µM
CC(C)CNC(=O)/C=C/CCc1ccc2c(c1)OCO2 [dihydropiperlonguminine],IC50,sEH; from Scutellaria baicalensis,7.83 ± 0.52 µM
CC(C)C(=O)Nc1ccc([N+](=O)[O-])c(C(F)(F)F)c1 [flutamide],IC50,sEH; from Scutellaria baicalensis,6.32 ± 0.31 µM
C[C@@H]1CC[C@]2(C(=O)O)CC[C@]3(C)C(=CC[C@@H]4[C@@]5(C)CC(=O)[C@H](O)C(C)(C)[C@@H]5CC[C@]43C)[C@@H]2[C@]1(C)O [2-oxopomolic acid],IC50,sEH,11.4 ± 2.7 µM
CC(C)CNC(=O)/C=C/C=C/c1ccc2c(c1)OCO2 [piperlonguminine],IC50,sEH; from Scutellaria baicalensis,6.06 ± 0.12 µM
N[C@@H](Cc1c[nH]c2ccccc12)C(=O)N[C@@H](Cc1ccc(O)cc1)C(=O)N[C@@H](Cc1c[nH]c2ccccc12)C(=O)O [WYW] (H-Trp-Tyr-Trp-OH),inhibition at 100 µM,[1],60.3 ± 5.6%
same,IC50,[1],70.7 ± 9.9 µM
N[C@@H](Cc1ccc(O)cc1)C(=O)N[C@@H](Cc1ccccc1)C(=O)N[C@@H](Cc1ccc(O)cc1)C(=O)O [YFY] (H-Tyr-Phe-Tyr-OH),inhibition at 100 µM,[1],53 ± 3.09%
same,IC50,[1],94.1 ± 12.9 µM
N[C@@H](Cc1c[nH]c2ccccc12)C(=O)N[C@@H](Cc1c[nH]c2ccccc12)C(=O)N[C@@H](Cc1ccc(O)cc1)C(=O)O [WWY] (H-Trp-Trp-Tyr-OH),inhibition at 100 µM,[1],55.1 ± 2.38%
same,IC50,[1],68.8 ± 7.72 µM
COc1cc(CNC(=O)CCCCCCC(C)C)ccc1O [dihydrocapsaicin],IC50,sEH; [2],7.3 ± 0.7 µM
O=c1c(O)c(-c2ccc(O)c(O)c2)oc2cc(O)cc(O)c12 [quercetin],IC50,sEH,22.5 ± 0.9 µM
CCCCC/C=C/C=C/C(=O)NCC(C)C [pellitorine],IC50,sEH; from Scutellaria baicalensis,93.7 ± 4.52 µM
C[C@H]1[C@H](C)CC[C@]2(C(=O)O)CC[C@]3(C)C(=CC[C@@H]4[C@@]5(C)CC[C@H](O)C(C)(C)[C@@H]5CC[C@]43C)[C@H]12 [ursolic acid],IC50,sEH,84.5 ± 9.5 µM
N[C@@H](Cc1ccc(O)cc1)C(=O)N[C@@H](Cc1ccccc1)C(=O)N[C@@H](Cc1c[nH]c2ccccc12)C(=O)O [YFW] (H-Tyr-Phe-Trp-OH),inhibition at 100 µM,[1],57.4 ± 7.62%
same,IC50,[1],96 ± 7.5 µM
C[C@H]1[C@H](C)CC[C@]2(C(=O)O)CC[C@]3(C)C(=CC[C@@H]4[C@@]5(C)C[C@@H](O)[C@H](O)C(C)(C)[C@@H]5CC[C@]43C)[C@H]12 [corosolic acid],IC50,sEH,51.3 ± 4.9 µM
O=c1c(O[C@H]2OC[C@@H](O)[C@@H](O)[C@@H]2O)c(-c2ccc(O)c(O)c2)oc2cc(O)cc(O)c12 [quercetin-3-O-arabinoside],IC50,sEH,39.3 ± 3.4 µM
O=c1c(O)c(-c2ccc(O)cc2)oc2cc(O)cc(O)c12 [kaempferol],IC50,sEH,31.3 ± 2.6 µM
